The text below walks through data of US20060223849A1, “Benzazole derivatives, compositions, and methods of use as beta-secretase inhibitors” (priority 2005, published 2006).

For this experiment, the system named is HEK293 cells stably expressing wildtype human APP695 protein (HEK-APPwt cells). Briefly: Aβ cell based assay (Aβ1-40 secretion, ELISA). Conditions: 1 hr room temperature then five-hour incubation at 37° C., Aβ1-40 ELISA, DAPT as 100% inhibition reference, read-out: EC50, reduction of Aβ1-40 secretion in the cell based assay. The protocol:
Aβ Cell Based Assay Procedure
In the following assay, the proteolytic activity of BACE in cells exposed to varying concentrations of a compound of interest is measured by observing the amount of Aβ1-40 secreted from HEK293 cells (Human Embryonic Kidney epithelial cell line) stably expressing either wildtype human APP695 protein (HEK-APPwt cells).
HEK-APPwt cells were grown in high glucose DMEM (Dulbecco's Modified Eagles Medium) with 4500 mg glucose/L,L-glutamine, NaHCO3, pyrdoxin HCl, 10 mM HEPES (4-(2-hydroxyethyl)-1-piperazineethanesulfonic acid) (pH 7.4), 0.1 mM NEAA (Non-essential Amino Acids) (GIBCO Cat#11140-050), 10% fetal bovine serum and 250 μg/ml hygromycin in T-225 flasks at 37° C. with CO2 and humidity control.
Test compounds were initially prepared in DMSO and diluted with DMEM media containing 2% FBS (Fetal bovine serum) and 0.05% Tween20. Ten standard compound solutions were prepared having a range of concentrations. The standard compound solutions were used to determine the EC50 of the test compound. The range of concentrations chosen may depend on the compound's predicted potency.
To prepare the cells for the assay, a flask containing HEK-APPwt cells were trypsinized briefly (1 mL trypsin), and once the cells detached, 4 mL of 10% FBS-DMEM was added to the flask. The detached cells were centrifuged at 900 rpm for 5 min to form a pellet.
The HEK-APPwt cell pellet was re-suspended with 10 mL DMEM media containing 2% FBS. 80 μL of the cell suspension was added to each well of a 96-well cell culture plate to give 100,000 cells/well. 10 μL of a standard compound solution was added to each well of the 96-well cell culture plate followed by 10 μL of Alamar blue solution. The cells were incubated at room temperature for 1 hr, followed by a five-hour incubation in the CO2 incubator at 37° C.
At the end of the incubation, the plates were removed from incubator, and the supernatant was collected. Aβ1-40 concentration in the medium was measured by using a commercial Aβ1-40 ELISA kit (IBL, Japan). Briefly, the ELISA plates were coated with anti-human Aβ35-40 mouse IgG monoclonal antibody. A horseradish peroxidase enzyme conjugated anti-human Aβ11-28 mouse IgG monoclone antibody was used for detection. The cell culture supernatant was diluted 1:4 fold with (EIA buffer+Protease inhibitor (buffer containing Protease Inhibitor (1 mL PI/30 mL buffer). A 100 μL aliquot of the diluted supernatant was added to each well of the ELISA plate and incubated for 6 hrs at 4° C. The ELISA plate was washed 8 times with phosphate buffered saline (PBS) containing 0.05% Tween 20.
A 100 μL of detection antibody was then added and incubated for 1 hour at 4° C. The plate was washed 8 times with PBS buffer containing 0.05% Tween 20 followed by addition of 100 μL of the substrate with the chromogen tetramethyl benzidine (TMB). The plate was incubated in the dark at room temperature for about 30 min and a stop solution (1N H2SO4) was added.
The intensity of the color developed was measured at 450 nm. The optical density at 450 nm (OD450) is proportional to the concentration of human Aβ1-40 secreted by the cell. As a reference, N—[N-(3,5-difluorophenacetyl-L-alanyl)]-S-phenylglycine t-butyl ester (DAPT, a γ-secretase inhibitor) was used to indicate 100% inhibition of BACE activity. Thus, the assay measures the ability of a compound of interest to reduce Aβ1-40 secretion. Compound potency was reported as the EC50 by calculating the percent inhibition at all concentration levels and the data were fit with non-linear curve fitting algorithm using in GraphPad Prism.
(In general: An ELISA detects its analyte on a solid surface through an enzyme-linked reagent.)
Turning to `COc1cc2ccnc(C(=O)Nc3nc4c(C(=O)Nc5ncc[nH]5)cccc4[nH]3)c2cc1OC` [Example 289, 6,7-dimethoxy-isoquinoline-1-carboxylic acid [4-(1H-imidazol-2-ylcarbamoyl)-1H-benzoimidazol-2-yl]-amide], the EC50 (usually the concentration needed to bring the measured effect to its halfway point) was no more than 2 µM.
For the molecule `CCOc1cc(C(=O)Nc2ncc[nH]2)c2[nH]c(NC(=O)c3cc4ccccc4cn3)nc2c1` [Example 472, isoquinoline-3-carboxylic acid [5-ethoxy-7-(1H-imidazol-2-ylcarbamoyl)-1H-benzoimidazol-2-yl]-amide], the EC50 was no more than 2 µM.
Consider `O=C(Nc1nc2c(C(=O)Nc3ncc[nH]3)cccc2[nH]1)c1cccc(C#Cc2cccnc2)n1` [Example 434, Ar = 6-(Pyridin-3-ylethynyl)-pyridine-2-yl], for which the EC50 is no more than 2 µM.
On to `COc1ccc2cnc(C(=O)Nc3nc4c(C(=O)Nc5ncc[nH]5)cccc4[nH]3)cc2c1` [Example 294, 6-Methoxy-isoquinoline-3-carboxylic acid [4-(1H-imidazol-2-ylcarbamoyl)-1H-benzoimidazol-2-yl]-amide], for which the EC50 was no more than 2 µM.
Next, `COc1cccc2cc(C(=O)Nc3nc4c(C(=O)Nc5ncc[nH]5)cccc4[nH]3)ncc12` [Example 295, 8-methoxy-isoquinoline-3-carboxylic acid [4-(1H-imidazol-2-ylcarbamoyl)-1H-benzoimidazol-2-yl]-amide]: no more than 2 µM; `O=C(Nc1ncc[nH]1)c1ccc2[nH]c(NC(=O)c3cc4ccccc4cn3)nc2c1` [Example 140, isoquinoline-3-carboxylic acid [5-(1H-imidazol-2-ylcarbamoyl)-1H-benzoimidazol-2-yl]-amide]: no more than 2 µM.
For the molecule `CC(C)(C)C#Cc1cccc(C(=O)Nc2nc3c(C(=O)Nc4ncc[nH]4)cccc3[nH]2)n1` [Example 428, Ar = 6-(3,3-Dimethyl-but-1-ynyl)-pyridine-2-yl], the EC50 is no more than 2 µM.
For the molecule `CS(=O)(=O)c1ccc(CNC(=O)c2cccc3[nH]c(NC(=O)c4cc5ccccc5cn4)nc23)cc1` [Example 155, isoquinoline-3-carboxylic acid [4-(4-methanesulfonyl-benzylcarbamoyl)-1H-benzoimidazol-2-yl]-amide], the EC50 is no more than 2 µM.
For `COc1ccc(CNC(=O)c2cccc3nc(NC(=O)c4cc5ccccc5cn4)[nH]c23)cc1` [Example 165, Isoquinoline-3-carboxylic acid [7-(4-methoxy-benzylcarbamoyl)-1H-benzoimidazol-2-yl]-amide], the EC50 is no more than 2 µM.
The value for `O=C(Nc1nc2c(C(=O)Nc3ncc[nH]3)cccc2[nH]1)c1nccc2ccccc12` [Example 311, Ar = Isoquinoline-1-yl] was no more than 2 µM; that for `Cn1ccnc1CN1CCc2nc(NC(=O)c3cccc4[nH]c(NC(=O)c5cc6ccccc6cn5)nc34)sc2C1` [Example 247, Isoquinoline-3-carboxylic acid {4-[5-(1-methyl-1H-imidazol-2-ylmethyl)-4,5,6,7-tetrahydro-thiazolo[5,4-c]pyridin-2-ylcarbamoyl]-1H-benzoimidazol-2-yl}-amide] was no more than 2 µM; that for `Cc1nc(NC(=O)c2cccc3[nH]c(NC(=O)c4cc5ccccc5cn4)nc23)[nH]c1C` [Example 193, Isoquinoline-3-carboxylic acid [4-(4,5-dimethyl-1H-imidazol-2-ylcarbamoyl)-1H-benzoimidazol-2-yl]-amide] was no more than 2 µM.
Take `CCS(=O)(=O)c1cc(C(=O)Nc2ncc[nH]2)c2[nH]c(NC(=O)c3cc4ccccc4cn3)nc2c1` [Example 491, isoquinoline-3-carboxylic acid [5-ethanesulfonyl-7-(1H-imidazol-2-ylcarbamoyl)-1H-benzoimidazol-2-yl]-amide]: the EC50 is no more than 2 µM.
As to `O=C(Nc1nc2c(C(=O)Nc3ncc[nH]3)cccc2[nH]1)c1cncc(-c2cccc(F)c2)c1` [Example 351, Ar = 5-(3-Fluoro-phenyl)-pyridine-3-yl], the EC50 is no more than 2 µM.
For `O=C(Nc1nc2c(C(=O)Nc3ncc[nH]3)cccc2[nH]1)c1cccc(C#CC2CC2)n1` [Example 439, Ar = 6-(Cyclopropylethynyl)-pyridine-2-yl], the EC50 is no more than 2 µM.
On to `COc1ccc2cc(C(=O)Nc3nc4c(C(=O)Nc5ncc[nH]5)cccc4[nH]3)ncc2c1` [Example 296, 7-methoxy-isoquinoline-3-carboxylic acid [4-(1H-imidazol-2-ylcarbamoyl)-1H-benzoimidazol-2-yl]-amide], for which the EC50 was no more than 2 µM.
